Earlier results in PubChem BioAssay AID1259409 (Chemical Carcinogenesis Research Information System (CCRIS), 2018).

Test system: rodent chemically induced tumor inhibition, incidence and multiplicity
Assay: CCRIS tumor inhibitor studies
Conditions: Dose [Inhibitor]: 0, Promoter: NONE USED

COc1ccc(-c2coc3cc(O)cc(O)c3c2=O)cc1
tumour outcome (control, treated, inhibition, significance) (Carcinogen: BENZO[A]PYRENE, 50-32-8, 0.125 MG IN 0.1 ML DMSO 3/WK FOR 6 WK AFTER WEANING (STUDY DURATION: 9 WK), Route [Inhibitor]: INTRAPERITONEAL, Species: MOUSE, Strain/Sex: SWISS WEBSTER/MALE, FEMALE, Target Tissue: Type of Lesion: LUNG: ADENOMA, Dose [Carcinogen]: 0.5 MG IN AQUEOUS GELATIN WITHIN 24 HRS AFTER BIRTH): 20/35 (57%), 2/16 (13%), 77%, p<0.01 | tumour outcome (control, treated, inhibition, significance) (Carcinogen: BENZO[A]PYRENE, 50-32-8, 0.125 MG IN 0.1 ML DMSO 3/WK FOR 6 WK AFTER WEANING (STUDY DURATION: 9 WK), Route [Inhibitor]: INTRAPERITONEAL, Species: MOUSE, Strain/Sex: SWISS/FEMALE, Target Tissue: Type of Lesion: LUNG: ADENOMA, Dose [Carcinogen]: 0.5 MG IN 1% AQUEOUS GELATIN TO 24 HR OLD MICE ONCE): 11/19 (58%), 2/16 (13%), 78%, p<0.01 | tumour outcome (control, treated, inhibition, significance) (Carcinogen: BENZO[A]PYRENE, 50-32-8, 500 MG/KG IN 0.1 ML DMSO 2 D PRIOR TO EACH CARCINOGEN DOSE 1/WK FOR 4 WK (STUDY DURATION: 30 WK), Route [Inhibitor]: GAVAGE, Species: MOUSE, Strain/Sex: SWISS/FEMALE, Target Tissue: Type of Lesion: FORESTOMACH: CARCINOMA, Dose [Carcinogen]: 3 MG IN 0.2 ML CORN OIL 1/WK FOR 4 WK): 13/26 (50%), 4/24 (17%), 66%, p<0.02 | tumour outcome (control, treated, inhibition, significance) (Carcinogen: BENZO[A]PYRENE, 50-32-8, 500 MG/KG IN 0.1 ML DMSO 2 D PRIOR TO EACH CARCINOGEN DOSE 1/WK FOR 4 WK (STUDY DURATION: 30 WK), Route [Inhibitor]: GAVAGE, Species: MOUSE, Strain/Sex: SWISS/FEMALE, Target Tissue: Type of Lesion: FORESTOMACH: PAPILLOMA, Dose [Carcinogen]: 3 MG IN 0.2 ML CORN OIL 1/WK FOR 4 WK): 25/26 (96%), 21/24 (88%), 8%, not calculated | tumour outcome (control, treated, inhibition, significance) (Carcinogen: BENZO[A]PYRENE, 50-32-8, 500 MG/KG IN 0.1 ML DMSO 2 D PRIOR TO EACH CARCINOGEN DOSE 1/WK FOR 4 WK (STUDY DURATION: 30 WK), Route [Inhibitor]: GAVAGE, Species: MOUSE, Strain/Sex: SWISS/FEMALE, Target Tissue: Type of Lesion: LUNG: ADENOMA, Dose [Carcinogen]: 3 MG IN 0.2 ML CORN OIL 1/WK FOR 4/WK): 24/26 (92%), 20/24 (83%), 10%, not calculated | tumour outcome (control, treated, inhibition, significance) (Carcinogen: N-METHYL-N-NITROSOUREA, 684-93-5, 10 MG/KG IN DIET FOR DURATION OF STUDY BEGINNING POST CARCINOGEN DOSE (STUDY DURATION: 18 WK), Route [Inhibitor]: ORAL, Species: RAT, Strain/Sex: SPRAGUE-DAWLEY/FEMALE, Target Tissue: Type of Lesion: MAMMARY GLAND: TUMOR, Dose [Carcinogen]: 40 MG/KG BW ONCE): 16/20 (80%), 11/19 (58%), 28%, not calculated | tumour outcome (control, treated, inhibition, significance) (Carcinogen: N-METHYL-N-NITROSOUREA, 684-93-5, 50 MG/KG IN DIET FOR DURATION OF STUDY BEGINNING POST CARCINOGEN DOSE (STUDY DURATION: 18 WK), Route [Inhibitor]: ORAL, Species: RAT, Strain/Sex: SPRAGUE-DAWLEY/FEMALE, Target Tissue: Type of Lesion: MAMMARY GLAND: TUMOR, Dose [Carcinogen]: 40 MG/KG BW ONCE): 16/20 (80%), 6/19 (32%), 60%, p<0.01
